# Test results taken from patent US20190331687A1, “CANCER TREATMENT” (PFIZER INC., priority 2014, published 2019).
# Tested on: metastatic renal cell carcinoma (mRCC)
# Assay: Study A4061032 (AXIS phase 3 trial): PFS and OS of axitinib-treated mRCC patients by tumor CD68 IHC stratum (median cut off)
# Assay type: in vivo, human
# Conditions: for median OS / median progression free survival (PFS): regardless of prior treatment
# Text: Study A4061032 (ClinicalTrials.gov Identifier: NCT00678392) was a phase 3 registrational trial entitled “Axitinib (AG-013736) as second line therapy for metastatic renal cell cancer: Axis trial”. […] A total of 650 patients were planned to be enrolled, and 723 subjects were eventually enrolled in the study.
# As described in further detail in the Examples, formalin-fixed paraffin embedded (FFPE) tumor samples were collected from patients who participated in A4061032, and who provided specific consent for collection of tumor sample. Tumor myeloid (cluster of differentiation 68 “CD68”) or lymphocyte (cluster of differentiation 3 “CD3”) infiltration was assessed by immunohistochemistry (IHC) in tumor samples from 52 axitinib-treated patients. The aim was to investigate the potential association of these biomarkers with efficacy, consistent with the hypothesis that myeloid infiltration confers resistance to anti-angiogenic agents targeting the VEGF-VEGFR2 pathway (see Shojaei et al. (2007) Nat. Biotechnol. 25(8):911-920; and Lin et al. (2010) Eur. J. Cancer Suppl. 8(7): 191).
# The evaluation of CD3 and CD68 was performed by image analysis from a whole slide scan. The region of interest was circled, and an image analysis algorithm was run. The percentage of positive cells (number of positive cells/total number of cells) and the density of positive cells (e.g. number of positive cells/mm^2) was measured. Some patients donated FFPE blocks, and some donated slides cut from blocks. Samples from all patients were analyzed, whether they were provided as slides or blocks.
# This study was a 2-arm, randomized, open-label, multi-center phase 3 study of axitinib versus sorafenib in patients with metastatic renal cell carcinoma (mRCC), after failure following one prior systematic first-line regimen containing one or more of the following agents: sunitinib, bevacizumab+IFN α, temsirolimus, or cytokine(s). Overall, 723 patients with mRCC were randomized and enrolled in this study, among which 52 axitinib-treated patients were evaluable for immunohistochemistry (IHC) analysis; further, 33 of the 52 patients were previously treated with Sutent®.
# All 52 patients were evaluable for both CD3 and CD68. Of the 52 CD3 and CD68 evaluable patients, 26 donated formalin-fixed paraffin embedded (FFPE) tumor blocks, and 26 donated slides for analysis. Mosaic Laboratories provided FFPE material representing human normal and human cancer. Specimens were procured under an IRB-reviewed protocol (MOS001) that allows for use of remnant, de-identified, or anonymized human samples for in vitro analysis under the guidelines defining ‘Exemption from Human Subject Research’ as defined by the Office of Human Research Protection. The CD68 mouse monoclonal KP1 antibody (Catalog# M0814, Lot#46406, Expiration date: September 2011) was purchased from Dako (Carpinteria, Calif., United States) and stored at 2-8° C. in accordance with accompanying documentation. The mouse IgG isotype control antibody (Lot#37211, Expiration date: July 2010) was purchased from Dako and stored at 2-8° C. in accordance with accompanying documentation. IHC was performed in accordance with Mosaic Laboratories' SOPs. The CD68 IHC assay was designed and validated to be compatible with CLIA guidelines for “homebrew” class I test validation.
# For IHC biomarker analysis, the Biomarker Analysis Set was used, which included all patients who received at least one dose of study treatment. The following efficacy endpoints were analyzed: PFS, OS, and objective response rate (ORR). Summary statistics were provided for percent and density of positive cells by response category (complete response [CR]+partial response [PR] versus stable disease [SD]+progressive disease [PD]) for each marker). The Wilcoxon Rank Sum test was performed to test for difference between response categories. Fisher's exact test was used to test for association between response category and biomarker stratum using median value as cut off point.
# [1] = patients with <median CD68 cell density (cut off 0.08 cells/mm^2)
# [2] = patients with <median CD68 percentage of positive cells (cut off 5.21%)
# [3] = patients with >=median CD68 cell density (cut off 0.08 cells/mm^2)
# [4] = patients with >=median CD68 percentage of positive cells (cut off 5.21%)
compound,measurement,setting,value
"CNC(=O)c1ccccc1Sc1ccc2c(/C=C/c3ccccn3)n[nH]c2c1 [axitinib, 6-[2-(methylcarbamoyl)phenylsulfanyl]-3-E-[2-(pyridin-2-yl)ethenyl]indazole]",hazard ratio (HR) for OS,">=median vs <median CD68 values, all cases, not statistically significant",> 0.6
same,hazard ratio [HR] for PFS,">=median vs <median CD68 values, logrank p-value<=0.01, all patients regardless of prior treatment",0.42
same,median OS,[1],17.8 months
same,median progression free survival (PFS),[1],3.8 months
same,median OS,[2],21.8 months
same,median progression free survival (PFS),[2],3.7 months
same,median OS,[3],22.6 months
same,median progression free survival (PFS),[3],12.0 months
same,median OS,[4],20.0 months
same,median progression free survival (PFS),[4],12.0 months
